From patent US20120190707A1, “SELECTIVE INHIBITORS OF AKT AND METHODS OF USING SAME” (priority 2008, published 2012)
Several values for one entry are separate records, joined by “and”; a condition that tells them apart may be missing. Equal values may be shown once. Entries after “also recorded” stand apart in the source; their conditions may differ. Read-outs that look alike come from different tables or passages of the source.

Tests used:
Akt1 [1] = molecular target: T1, Akt1 (Homo sapiens, UniProt P31749); test: Akt1 inhibition, Z'-LYTE kit fluorescent-enzymatic assay; format: biochemical; details: for Ki: 10 μM compound 1, 20 μM compound 2, 50 μM compound 3, increasing ATP, Lineweaver-Burk
T1 sequence (P31749 whole entry): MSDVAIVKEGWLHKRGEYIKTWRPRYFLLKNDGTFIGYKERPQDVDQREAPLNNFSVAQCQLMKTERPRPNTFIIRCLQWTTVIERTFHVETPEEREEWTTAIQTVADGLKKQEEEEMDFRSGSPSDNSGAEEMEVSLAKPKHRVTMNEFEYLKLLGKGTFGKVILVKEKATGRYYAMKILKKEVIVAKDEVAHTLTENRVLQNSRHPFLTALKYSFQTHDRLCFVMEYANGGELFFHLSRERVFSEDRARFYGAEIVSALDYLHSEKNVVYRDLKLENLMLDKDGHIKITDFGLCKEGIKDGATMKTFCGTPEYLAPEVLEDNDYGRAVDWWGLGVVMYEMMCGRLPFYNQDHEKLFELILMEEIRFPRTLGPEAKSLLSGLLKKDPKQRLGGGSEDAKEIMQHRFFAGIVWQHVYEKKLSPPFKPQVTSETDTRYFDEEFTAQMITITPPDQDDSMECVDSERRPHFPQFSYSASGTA
Method: Here the top 4000 compounds out of 50000 docked compounds were selected using FlexX and Drugscore (BioSolvIT). The top 4000 docked structures were further evaluated and ranked according to Goldscore and Chemscore functions (CSCORE). A list of common 200 compounds was then selected among ranked top 700 compounds according to both scoring functions (FIG. 1B). […] The remaining 100 compounds were experimentally tested up to 30 μM against Akt1. The inhibitory activity was evaluated for the selected compounds by using Z'-LYTE™ kit assay provided by Invitrogen Corporation (19). […] Corning® 384-well low volume plates (20 μl) were used. The fluorescent-enzymatic assay has been performed following the protocol provided by Invitrogen Corporation, using a fluorescent plate reader (Victor2, Perkin-Elmer). […] C) Lineweaver-Burk Km and Km(app) evaluation for Akt1. Each measurement was performed in triplicate. […] The Ki and the Km(app) were calculated at fixed inhibitor concentrations, as reported in the text. All constant values were definitely evaluated by fitting the data to the Lineweaver-Burk plot; D) Akt1 inhibition assay using GSK-3 as a substrate. Comparison of compounds 1 and 2 (Table 1) with H89 at 10 μM. E) Dose response for compound 1. Akt (10 ng of recombinant enzyme) in 25 μl 1× kinase buffer (25 mM Tris, pH 7.5; 5 mM n-glycerol phosphate; 2 mM dithiothreitol; 0.1 mM Na3VO4; and 10 mM MgCl2), was mixed with 2.5 μl DMSO (1% stock) or MPA-D (100 μM in 1% DMSO). Samples were incubated on ice for 1.5 hours at which time 1 μg of GSK-3 fusion protein (Cell Signaling), which served as the substrate, was added followed by ATP (200 μM) to each reaction mixture. After the suspensions were incubated at 30° C. for 20 min, the reaction was terminated by the addition of 3×SDS sample buffer (187.5 mM Tris-HCl, pH 6.8; 6% SDS; 30% glycerol; 150 mM dithiothreitol; and 0.03% bromophenol blue). The samples were boiled for 5 min, and the proteins were separated on a 12% SDS polyacrylamide gel and subsequently transferred to a nitrocellulose membrane. Membranes were incubated with rabbit polyclonal anti-phospho-GSK-3α/β (Ser21/9) (Cell Signaling).
For these purposes, we initially determined the Km and the Vmax of the enzymatic reaction involving the peptide provided by the Z'-LYTE™ kit assay and Akt1 by varying the concentration of ATP. The above parameters appeared to be 7.9 μM and 0.0205 μmol min^−1 mg^−1, respectively. […] Because all our inhibitors affected the Km rather than the Vmax of the reaction (FIG. 2C), they can be truly considered ATP-competitive inhibitors of Akt1.

Akt1 [2] = molecular target: T1, Akt1; test: Akt1 inhibition assay using GSK-3 as a substrate (immuno-blotting with anti-phospho-GSK-3α/β); format: biochemical
Method: Here the top 4000 compounds out of 50000 docked compounds were selected using FlexX and Drugscore (BioSolvIT). The top 4000 docked structures were further evaluated and ranked according to Goldscore and Chemscore functions (CSCORE). A list of common 200 compounds was then selected among ranked top 700 compounds according to both scoring functions (FIG. 1B). […] The remaining 100 compounds were experimentally tested up to 30 μM against Akt1. The inhibitory activity was evaluated for the selected compounds by using Z'-LYTE™ kit assay provided by Invitrogen Corporation (19). […] Corning® 384-well low volume plates (20 μl) were used. The fluorescent-enzymatic assay has been performed following the protocol provided by Invitrogen Corporation, using a fluorescent plate reader (Victor2, Perkin-Elmer). […] C) Lineweaver-Burk Km and Km(app) evaluation for Akt1. Each measurement was performed in triplicate. […] The Ki and the Km(app) were calculated at fixed inhibitor concentrations, as reported in the text. All constant values were definitely evaluated by fitting the data to the Lineweaver-Burk plot; D) Akt1 inhibition assay using GSK-3 as a substrate. Comparison of compounds 1 and 2 (Table 1) with H89 at 10 μM. E) Dose response for compound 1. […]

[3] = Table 2, derivatives of Compound 1, read-out: IC50
[4] = FIG. 2 legend, read-out: IC50 value

SMILES | inhibitory activity against Akt1 kinase (in words) (Akt1 [1]) | IC50 (Akt1 [1]; [3]) [nM] | Ki (Akt1 [1]) [nM] | IC50 (Akt1 [1]; [4]) | inhibition of GSK-3 phosphorylation (Akt1 [2]) | IC50 values (in words) (Akt1 [1]) | Hill slope (Akt1 [1]; IC50 curve, FIG. 2A) | IC50 (Akt1 [1]; Table 1, read-out: IC50) [nM]
CC1=C(C#N)c2nc(N)c(C#N)c(C)c2C1=Cc1ccc(-c2cccc(C(=O)O)c2)o1 [Compound 5] | appreciable inhibition in the micromolar range; also recorded: limited inhibitory activity | 60200 | – | – | – | – | – | –
CC1=C(C#N)c2nc(N)c(C#N)c(C)c2C1=Cc1ccc(-c2ccc(C(=O)O)cc2)o1 [Compound 4] | appreciable inhibition in the micromolar range; also recorded: limited inhibitory activity | – | – | – | – | – | – | –
O=C(O)c1cc(-c2ccc(C=C3C(=O)c4ccccc4C3=O)o2)ccc1O [Compound 3] | – | – | 20800 | 25100 nM | – | – | – | –
CC1=C(C#N)c2nc(N)c(C#N)c(C)c2/C1=C/c1ccc(-c2ccc(C(=O)O)c(Cl)c2)o1 [Compound 1] | – | 2600 | 1100 | 2300 nM and 2600 nM | low micromolar range | low-micromolar range | 1.1 | 2600
